Values after ≈ are worked out from the molar mass of the structure shown.
Tests used:
[1] = tested on: HepG2; assay: cells; details: Homo sapiens, HepG2, 48 h
Description: Cytotoxicity against human HepG2 cells after 48 hrs by MTT assay

[2] = target: Epidermal growth factor receptor (Homo sapiens, UniProt P00533); assay: Inhibition of human EGFR autophosphorylation expressed in Sf9 cells DELFIA assay; assay type: cell-based
Epidermal growth factor receptor, sequence (P00533 whole entry): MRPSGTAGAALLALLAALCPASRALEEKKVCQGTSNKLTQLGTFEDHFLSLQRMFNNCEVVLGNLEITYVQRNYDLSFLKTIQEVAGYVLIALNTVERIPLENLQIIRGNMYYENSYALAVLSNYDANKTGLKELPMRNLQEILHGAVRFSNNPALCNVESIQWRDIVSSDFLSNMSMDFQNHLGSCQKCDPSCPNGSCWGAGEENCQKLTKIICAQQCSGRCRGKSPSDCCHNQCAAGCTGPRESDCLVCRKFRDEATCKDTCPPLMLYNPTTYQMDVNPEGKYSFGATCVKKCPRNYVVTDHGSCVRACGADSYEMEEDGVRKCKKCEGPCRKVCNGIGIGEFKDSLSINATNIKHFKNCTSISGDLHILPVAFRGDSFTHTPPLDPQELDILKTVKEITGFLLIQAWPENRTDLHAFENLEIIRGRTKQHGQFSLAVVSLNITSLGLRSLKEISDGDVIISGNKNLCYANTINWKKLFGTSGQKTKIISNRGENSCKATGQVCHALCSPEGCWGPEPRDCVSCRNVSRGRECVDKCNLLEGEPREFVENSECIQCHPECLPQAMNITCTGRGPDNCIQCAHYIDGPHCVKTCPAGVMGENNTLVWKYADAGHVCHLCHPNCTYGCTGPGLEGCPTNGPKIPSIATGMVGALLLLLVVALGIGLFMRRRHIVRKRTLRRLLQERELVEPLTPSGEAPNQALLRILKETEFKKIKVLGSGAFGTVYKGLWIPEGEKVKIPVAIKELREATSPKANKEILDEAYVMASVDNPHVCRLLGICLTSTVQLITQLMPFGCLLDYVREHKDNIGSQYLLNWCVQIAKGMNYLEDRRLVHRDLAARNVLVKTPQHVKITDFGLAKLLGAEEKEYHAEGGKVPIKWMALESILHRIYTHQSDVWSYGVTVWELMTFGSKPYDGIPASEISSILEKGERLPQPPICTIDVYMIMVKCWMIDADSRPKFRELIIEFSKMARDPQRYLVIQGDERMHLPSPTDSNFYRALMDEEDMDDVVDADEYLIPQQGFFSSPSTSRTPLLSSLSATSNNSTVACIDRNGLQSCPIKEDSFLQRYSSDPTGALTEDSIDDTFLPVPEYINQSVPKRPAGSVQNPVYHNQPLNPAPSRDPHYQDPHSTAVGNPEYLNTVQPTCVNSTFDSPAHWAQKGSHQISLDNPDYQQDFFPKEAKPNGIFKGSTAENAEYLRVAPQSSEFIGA

| SMILES | IC50 [1] | IC50 [2] |
| --- | --- | --- |
| COC(=O)c1cc(C(=O)C2CC2)n2c(C)ccc(Br)c12 | 1.1 µg/mL (≈ 3.27 µM) |  |
| COC(=O)c1cc(C(=O)C2CC2)n2c(Br)cccc12 | 2.5 µg/mL (≈ 7.76 µM) |  |
| COC(=O)c1cc(C(=O)C2CC2)n2c1ccc1nccn12 | 25 µg/mL (≈ 88.2 µM) |  |
| O=C(Nc1ccccc1)c1cc(C(=O)C2CC2)n2ccccc12 | 0.56 µg/mL (≈ 1.84 µM) |  |
| CCOC(=O)c1c(C(=O)OCC)c2ccccn2c1C(=O)C1CC1 | 32 µg/mL (≈ 97.2 µM) |  |
| O=C(c1c2c(c3ccccn13)C(=O)N(c1ccccc1)C2=O)C1CC1 | 0.48 µg/mL (≈ 1.45 µM) |  |
| COC(=O)c1c(C(=O)OC)c2c3ccccc3ccn2c1C(=O)C1CC1 | 27 µg/mL (≈ 76.8 µM) |  |
| COC(=O)c1cc(C(=O)C2CC2)n2c1ccc1ccccc12 | 4.6 µg/mL (≈ 15.7 µM) |  |

Next, values leading:

| IC50 [1] | IC50 [2] | SMILES |
| --- | --- | --- |
| 21 µg/mL (≈ 93.6 µM) |  | Cc1ccn2c(C(=O)C3CC3)cc(C#N)c2c1 |
| 0.32 µg/mL (≈ 1.52 µM) |  | N#Cc1cc(C(=O)C2CC2)n2ccccc12 |
| 0.29 µg/mL (≈ 0.845 µM) |  | CCOC(=O)c1c(C(=O)OCC)c2cc(C)ccn2c1C(=O)C1CC1 |
| 6.6 µg/mL (≈ 27.1 µM) |  | COC(=O)c1cc(C(=O)C2CC2)n2ccccc12 |
| 4.3 µg/mL (≈ 16.5 µM) |  | N#Cc1cc(C(=O)C2CC2)n2ccc3ccccc3c12 |
| 0.2 µg/mL (≈ 0.66 µM) | 85 nM | Cc1ccc(Br)c2c(C#N)cc(C(=O)C3CC3)n12 |
| 9.3 µg/mL (≈ 31.7 µM) |  | COC(=O)c1cc(C(=O)C2CC2)n2ccc3ccccc3c12 |
| 2.1 µg/mL (≈ 8.07 µM) |  | N#Cc1cc(C(=O)C2CC2)n2c1ccc1ccccc12 |
| 25 µg/mL (≈ 97.2 µM) |  | COC(=O)c1cc(C(=O)C2CC2)n2ccc(C)cc12 |
| 1.8 µg/mL (≈ 6.23 µM) |  | N#Cc1cc(C(=O)C2CC2)n2c(Br)cccc12 |
| 15 µg/mL (≈ 59.9 µM) |  | N#Cc1cc(C(=O)C2CC2)n2c1ccc1nccn12 |
